Data as given in patent US10590100B2, “Benzofuran derivatives for the treatment of CNS and other disorders” (WARNER BABCOCK INSTITUTE FOR GREEN CHEMISTRY, priority 2015, dated 2020).

What was measured:
Format in all cases: biochemical
amylin aggregates = target: T1, amylin aggregates (Homo sapiens, UniProt P10997); test: Bis-ANS fluorescence assay of disaggregation of amylin aggregates; settings: 15 μM amylin; for EC50: bis-ANS 15 μM, Tris-buffered saline, compound added after 24 hr aggregation
T1 construct: Amylin (15 μM) in TrisHCl—NaCl buffer was allowed to aggregate for 24 hr
T1 sequence (P10997 34-70 limits assumed): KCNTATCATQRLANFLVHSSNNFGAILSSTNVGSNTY
Protocol: Amylin (15 μM) in TrisHCl—NaCl buffer was allowed to aggregate for 24 hr, while monitoring the fluorescence of bis-ANS (15 μM) as a marker of amylin aggregation. Typically, the fluorescence increases during the aggregation period. After the aggregation period, varying concentrations (60, 15, 3.75, 0.938, 0.234, or 0 μM final concentration) of a test compound were then added to the sample, and the fluorescence intensity monitored until it plateaus, typically an additional 20-24 hr. Controls were simultaneously run in which the test compound was added to a sample that contained Bis-ANS but no amylin so as to determine any interfering intrinsic fluorescence of the test compound itself (see Table 1).
A series of assays was also carried out so as to determine the EC50 for EGCG, by addition of 60, 15, 3.75, 0.938, 0.234, or 0 μM EGCG after 24 hours, similarly to the methods used to assay the test compounds.

[1] = target: T2, zinc-induced Aβ42 aggregates (Homo sapiens, UniProt P05067); test: Bis-ANS fluorescence assay of disaggregation of zinc-induced Aβ42 aggregates; settings: for EC50: Aβ42 15 μM, bis-ANS 15 μM, Tris-buffered saline, with 15 μM Zn2+
T2 construct: 15 μM Aβ42 peptide in TrisHCl—NaCl buffer
T2 sequence (P05067 672-713 limits assumed): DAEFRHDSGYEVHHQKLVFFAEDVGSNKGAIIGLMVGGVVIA
Protocol: Bis-ANS was used as a fluorescent marker for Aβ42 aggregation and disaggregation so as to determine the efficacy, EC50, of each test compound in the presence or absence of zinc(II). Baseline fluorescence was established by monitoring the fluorescence of 15 μM bis-ANS in a TrisHCl-NaCl buffer (TrisHCl-NaCl buffer: 0.50 mM TrisHCl, 1.50 mM NaCl, pH 7.4) that contains 15 μM Aβ42. After 5 minutes, Zn(II) (as zinc(II) sulfate, 15 μM final concentration) was added to the Aβ42 solution, and the fluorescence intensity monitored for 24-40 minutes. Fluorescence increases following the addition of Zn(II) during the aggregation period. After the aggregation period, varying concentrations (60, 15, 3.75, 0.938, 0.234, or 0 μM final concentration) of a test compound were added, and the fluorescence intensity again monitored until it plateaus, typically 20-24 min. […] Fluorescence intensities were determined at 390 nm excitation wavelength/490 nm emission wavelength with a 475 nm cutoff. […] The responses I0-If, were calculated as the difference in the final fluorescent intensity If, c at the end of the assay for each concentration as compared to the final intensity I0 determined for the sample with no added derivative. The responses were normalized to the maximum response […] which is the final fluorescent intensity of the sample containing 60 μM test compound, Normalized response=(I0-If)/(I0-[…]). The fluorescent intensities were then fit to a 4-parameter sigmoidal logistic function to determine EC50. In the presence of soluble Aβ42, zinc(II) induces aggregation within milliseconds. This aggregation is detected by an increase in bis-ANS fluorescence. Disaggregation of zinc-dependent aggregates can be detected by a decrease in the fluorescence of bis-ANS in the assay. FIG. 1 depicts the zinc(II) induced Aβ42 aggregation and the disaggregation by BC-147 of the zinc-induced aggregates, measured by bis-ANS fluorescence assay.

[2] = target: T3, zinc-independent Aβ42 aggregates (Homo sapiens, UniProt P05067); test: Bis-ANS fluorescence assay of disaggregation of zinc-independent Aβ42 aggregates; settings: for EC50: Aβ42 15 μM, bis-ANS 15 μM, Tris-buffered saline, without Zn2+; for Change in bis-ANS fluorescence after addition of compound to zinc-independent Aβ42 aggregates: 15 μM Aβ42, no Zn2+, compound at 60.0 to 0.234 μM (FIG. 2)
T3 construct: 15 μM Aβ42 peptide in TrisHCl—NaCl buffer
T3 sequence (P05067 672-713 limits assumed): as above
Protocol: Bis-ANS was used as a fluorescent marker for Aβ42 aggregation and disaggregation so as to determine the efficacy, EC50, of each test compound in the presence or absence of zinc(II). Baseline fluorescence was established by monitoring the fluorescence of 15 μM bis-ANS in a TrisHCl-NaCl buffer (TrisHCl-NaCl buffer: 0.50 mM TrisHCl, 1.50 mM NaCl, pH 7.4) that contains 15 μM Aβ42. After 5 minutes, Zn(II) (as zinc(II) sulfate, 15 μM final concentration) was added to the Aβ42 solution, and the fluorescence intensity monitored for 24-40 minutes. Fluorescence increases following the addition of Zn(II) during the aggregation period. After the aggregation period, varying concentrations (60, 15, 3.75, 0.938, 0.234, or 0 μM final concentration) of a test compound were added, and the fluorescence intensity again monitored until it plateaus, typically 20-24 min. […] Fluorescence intensities were determined at 390 nm excitation wavelength/490 nm emission wavelength with a 475 nm cutoff. […] The responses I0-If, were calculated as the difference in the final fluorescent intensity If, c at the end of the assay for each concentration as compared to the final intensity I0 determined for the sample with no added derivative. The responses were normalized to the maximum response […] which is the final fluorescent intensity of the sample containing 60 μM test compound, Normalized response=(I0-If)/(I0-[…]). The fluorescent intensities were then fit to a 4-parameter sigmoidal logistic function to determine EC50. A representative example of disaggregation of spontaneously formed, zinc-independent Aβ42 aggregates by a test compound, BC-147, is given in FIG. 2. In the absence of zinc(II), soluble Aβ42 undergoes zinc-independent aggregation more slowly than aggregation in the presence of zinc(II). This spontaneous, zinc-independent aggregation of Aβ42 is detected by an increase in bis-ANS fluorescence. […] FIG. 2 depicts the disaggregation by BC-147 of the spontaneously formed, zinc-independent Aβ42 aggregates.

Row | SMILES | EC50 (amylin aggregates) [µM] | EC50 [1] [µM] | EC50 [2] [µM] | Change in bis-ANS fluorescence after addition of compound to zinc-independent Aβ42 aggregates [2] | Change in bis-ANS fluorescence after addition of compound to amylin aggregates (amylin aggregates; compound at 60.0, 15.0, 3.75, 0.938 or 0.234 μM added at about 1440 min (FIG. 5)) | Change in bis-ANS fluorescence after addition of compound to zinc-induced Aβ42 aggregates ([1]; 15 μM Aβ42, 15 μM Zn2+, compound at 60.0, 15.0, 3.75, 0.938 or 0.234 μM (FIG. 1))
1 | COc1ccc(N(c2ccc(OC)cc2)c2ccc(-c3cc4ccc(C=C(C#N)C(=O)O)cc4o3)cc2)cc1 [BC-156, 3-(2-(4-(bis(4-methoxyphenyl)amino)phenyl)benzofuran-6-yl)-2-cyanoacrylic acid] | 0.31 | 1.71 | 3.01 |  |  | 
2 | N#CC(=Cc1cc2ccc(N(c3ccccc3)c3ccccc3)cc2o1)C(=O)O [BC-146, 2-cyano-3-(6-(diphenylamino)benzofuran-2-yl)acrylic acid] | 0.52 | 0.54 | 4.9 |  |  | 
3 | O=C(O[C@@H]1Cc2c(O)cc(O)cc2O[C@@H]1c1cc(O)c(O)c(O)c1)c1cc(O)c(O)c(O)c1 [EGCG, Epigallocatechin gallate, reference compound] | 0.86 |  |  |  |  | 
4 | N#CC(=Cc1ccc(-c2cc3ccc(N(c4ccccc4)c4ccccc4)cc3o2)cc1)C(=O)O [BC-147, 2-cyano-3-(4-(6-(diphenylamino)benzofuran-2-yl)phenyl)acrylic acid] | 0.19 | 3.76 | 11.5 | decrease in bis-ANS fluorescence |  | decrease in bis-ANS fluorescence
5 | N#CC(=Cc1ccc2cc(-c3ccc(N(c4ccccc4)c4ccccc4)cc3)oc2c1)C(=O)O [BC-149, 2-cyano-3-(2-(4-(diphenylamino)phenyl)benzofuran-6-yl)acrylic acid] | 0.15 | 0.66 | 0.5 |  |  | 
6 | N#CC(=Cc1ccc2cc(-c3ccc(N(c4ccccc4)c4ccccc4)cc3)oc2c1)C(N)=O [BC-152, 2-cyano-3-(2-(4-(diphenylamino)phenyl)benzofuran-6-yl)acrylamide] | 0.8 | 2.7 | 1.11 |  |  | 
7 | NC(=O)C(=Cc1ccc2cc(-c3ccc(N(c4ccccc4)c4ccccc4)cc3)oc2c1)C(N)=O [BC-155, 2-((2-(4-(diphenylamino)phenyl)benzofuran-6-yl)methylene)malonamide] | 0.18 | 1.09 | 0.46 |  |  | 
8 | N#CC(=Cc1ccc2oc(-c3ccc(N(c4ccccc4)c4ccccc4)cc3)cc2c1)C(=O)O [BC-151, 2-cyano-3-(2-(4-(diphenylamino)phenyl)benzofuran-5-yl)acrylic acid] | 0.46 | 4.93 | 0.61 |  |  | 
9 | N#CC(C#N)=Cc1ccc2cc(-c3ccc(N(c4ccccc4)c4ccccc4)cc3)oc2c1 [BC-154, 2-((2-(4-(diphenylamino)phenyl)benzofuran-6-yl)methylene)malononitrile] | 2.09 |  |  |  |  | 

Further lines, results first:

Row | EC50 (amylin aggregates) [µM] | EC50 [1] [µM] | EC50 [2] [µM] | Change in bis-ANS fluorescence after addition of compound to zinc-independent Aβ42 aggregates [2] | Change in bis-ANS fluorescence after addition of compound to amylin aggregates (amylin aggregates; compound at 60.0, 15.0, 3.75, 0.938 or 0.234 μM added at about 1440 min (FIG. 5)) | Change in bis-ANS fluorescence after addition of compound to zinc-induced Aβ42 aggregates ([1]; 15 μM Aβ42, 15 μM Zn2+, compound at 60.0, 15.0, 3.75, 0.938 or 0.234 μM (FIG. 1)) | SMILES
10 | 0.14 |  |  |  |  |  | CN(c1ccccc1)c1ccc(-c2cc3ccc(C=C(C#N)C(=O)O)cc3o2)cc1 [BC-175, 2-cyano-3-(2-(4-(methyl(phenyl)amino)phenyl)benzofuran-6-yl)acrylic acid]
11 | 2.54 | 4.12 | 3.22 |  |  |  | COC(=O)C(C#N)=Cc1ccc2cc(-c3ccc(N(c4ccccc4)c4ccccc4)cc3)oc2c1 [BC-161, methyl 2-cyano-3-(2-(4-(diphenylamino)phenyl)benzofuran-6-yl)acrylate]
12 | 0.84 |  |  |  |  |  | N#CC(=Cc1ccc2cc(-c3ccc(N4CCOCC4)cc3)oc2c1)C(=O)O [BC-169, 2-cyano-3-(2-(4-morpholinophenyl)benzofuran-6-yl)acrylic acid]
13 |  | 46.1 |  | no effect |  |  | O=C(O)CN(CCN(CC(=O)O)CC(=O)O)CC(=O)O [EDTA, reference compound]
14 | 1.83 | 2.23 | 1.76 |  |  |  | N#CC(=Cc1ccc2cc(-c3ccc(N(c4ccccc4)c4ccccc4)cc3)oc2c1)C(=O)NCc1ccccn1 [BC-163, 2-cyano-3-(2-(4-(diphenylamino)phenyl)benzofuran-6-yl)-N-(pyridin-2-ylmethyl)acrylamide]
15 | 0.61 |  |  |  |  |  | N#CC(=Cc1ccc2cc(-c3ccc(N4CCCCC4)cc3)oc2c1)C(=O)O [BC-166, 2-cyano-3-(2-(4-(piperidin-1-yl)phenyl)benzofuran-6-yl)acrylic acid]
16 | 1.93 | 2.22 | 5.59 |  |  |  | N#CC(=Cc1ccc2cc(-c3ccc(N(c4cccnc4)c4cccnc4)cc3)oc2c1)C(=O)O [BC-159, 2-cyano-3-(2-(4-(di(pyridin-3-yl)amino)phenyl)benzofuran-6-yl)acrylic acid]
17 | 0.21 |  |  |  |  |  | CCN(CC)c1ccc(-c2cc3ccc(C=C(C#N)C(=O)O)cc3o2)cc1 [BC-173, 2-cyano-3-(2-(4-(diethylamino)phenyl)benzofuran-6-yl)acrylic acid]
18 | 1.73 |  |  |  | decrease in bis-ANS fluorescence |  | CC(C)(C)c1ccc(N(c2ccc(-c3cc4ccc(C=C(C#N)C(=O)O)cc4o3)cc2)c2ccc(C(C)(C)C)cc2)cc1 [BC-158, 3-(2-(4-(bis(4-(tert-butyl)phenyl)amino)phenyl)benzofuran-6-yl)-2-cyanoacrylic acid]
